The text below walks through data of article PMC10516900 (Communications Biology, 2023).

For data set [1], the system named is USP7. To be noted: read-out: IC50 USP7; cited from earlier work.
Data set [2] relates to USP47. The following applies: cited from earlier work.
Data set [3] deals with multiple myeloma xenograft models. The following applies: in vitro and in vivo multiple myeloma xenograft models; cited from earlier work.
The test system of data set [4] is p53. The data set can be described thus: Western blot analysis of protein levels, HCT116 (p53+/+). It counts as cell-based, human. As for the experimental part:
Stained colonies were counted in three independent experiments. The data represent the mean ± SD (*: p < 0.05, **: p < 0.005, and ***: p < 0.0005).
A total of 10–50 μg protein was extracted from cells and used for Western blot analysis. Briefly, the cells were lysed using protein lysis buffer (50 mM Tris–Cl, 150 mM NaCl, 1% Triton X-100, 1 mM EDTA, 200 mM Na3VO4, 1x proteinase inhibitor, pH 7.4) and the protein concentration was measured using a Micro BCA^TM Protein Assay kit (Thermo Scientific), based on the standard curve of BSA. The antibodies used for immunoblot analysis were purchased and assessed for equal loading as follows: rabbit anti-USP7 (#A300-034, dilution ratio 1:1000) and rabbit anti-USP47 (#A301-048A, 1:1000) from Bethyl Laboratories; mouse anti-Flag (#F1804, 1:1000) from Sigma Aldrich; rabbit anti-ubiquitin (#3933, 1:2000) from Cell Signaling; mouse anti-p53 (#sc-126, 1:1000), and mouse anti-HSP90α/β (#sc-13119, 1:5000) from Santa Cruz Biotechnology; rabbit anti-β-actin (#LF-PA0207, 1:5000) from AbFrontier. Samples were analyzed using SDS-PAGE, and chemiluminescence was measured using the Ez-Capture MG imaging system (ATTO Corporation).

Data set [5] deals with HCT116 (p53+/+) cells. The data set can be described thus: Colony formation assay, HCT116 (p53+/+). It counts as cell-based, human. To be noted: for Colony formation, colony number: WT (p53+/+), 10 days, three experiments and AVERAGE. As for the experimental part:
(§1) The cells were re-suspended with trypsin-EDTA, and 1000 cells were seeded in 35 mm dishes 48 h after transfection. After 10 days, the cells were washed with PBS and fixed in 4% paraformaldehyde for 10 min before being stained with Crystal violet for 30 min and washed with PBS.

Data set [6] deals with HCT116 (p53-/-) cells. Description: Colony formation assay, HCT116 (p53-/-). It counts as cell-based, human. To be noted: for Colony formation, colony number: KO (p53-/-), 10 days, three experiments and AVERAGE. As for the experimental part: as §1
In data set [7] the test system is HCT116 (p53-/-) cells. Description: Cell proliferation assay (WST-1), HCT116 (p53-/-). The class given is cell-based, human. To be noted: for Cell viability (WST-1 absorbance): P53-/-, absorbance at 450 nm. As for the experimental part:
(§2) After transfection, a cell proliferation assay was conducted each day using EZ-Cytox (Daeilbio, WST-1; #EZ-1000), using the manufacturer’s instructions. For P50429, the cells were seeded at 3000 or 6000 cells per well with an inhibitor concentration of 25 μM and 12.5 to 100 μM, respectively. EZ-Cytox (DoGEN, EZ-3000) was diluted using media and incubated for 30 min. The absorbance was measured at a wavelength of 450 nm using a microplate absorbance reader (Bio-Rad).
Background: Formazan colour is commonly taken as a measure of viable cells.

Data set [8] deals with HCT116 (p53+/+) cells. The data set can be described thus: Q-PCR relative expression levels, HCT116 (p53+/+). It counts as cell-based, human.
The test system of data set [9] is HCT116 (p53-/-) cells. The data set can be described thus: Q-PCR relative expression levels, HCT116 (p53-/-). The class given is cell-based, human. The text has this: (d) Western blot analysis was
The data represent the mean ± SD (*;p<0.05,
(1 picture or pasted object on this page, not shown here)

The test system of data set [10] is HCT116 (p53+/+) cells. Description: Cell proliferation assay (WST-1), HCT116 (p53+/+). It counts as cell-based, human. To be noted: absorbance at 450 nm. As for the experimental part:
as §2

pIC50: −log10 of the molar value. Several values for one entry are separate records, joined by “and”; a condition that tells them apart may be missing. Identical values can stand only once.

The pIC50 is the IC50 on a negative log10 scale, so that one unit is a factor of ten. Consider `CC(=O)c1cc([N+](=O)[O-])c(Sc2cccc(Cl)c2Cl)s1` [P5091, 1-[5-(2,3-dichlorophenylsulfanyl)−4-nitro-2thienl]ethanone], for which the pIC50 was 5.38 in data set [1] and 5.37 in [2]. Besides, in [3], the antitumor efficacy result was “antitumor efficacy”.
For “USP47i: siRNA targeting USP47 (5′-TGAAAAGGGATGTGCAAAA-3′) (chemistry not given here)”, in [4], the “protein levels of p53” value is recorded as “increased”. The “decrease in the number of colonies relative to control cells” value in data set [5] (HCT116 p53+/+, Fig. 1b) is on record as “approximately 30%”. The “Colony formation, colony number” value in [5] was 271 and 259 and 252; in data set [5] (mean), 260.667; in data set [6], 367 and 379 and 377; in data set [6] (mean), 374.333. Moreover, the “colony formation compared to control cells” value in data set [6] (p53-deficient HCT116) is reported as “did not yield any discernible differences”. Also, the “Cell viability (WST-1 absorbance)” value in data set [7] (day 1 after transfection) was 0.306; in [7] (day 2 after transfection), 0.559; in data set [7] (day 3 after transfection), 0.8146; in data set [7] (day 4 after transfection) it was 1.235; in data set [10] (day 1 after transfection) it was 0.327; in data set [10] (day 2 after transfection), 0.527. Also, the results for the “Cell viability (WST-1 absorbance)” value in data set [10] (day 3 after transfection) and in data set [10] (day 4 after transfection) were 0.7565 and 0.9428, respectively. Moreover, the “cell viability compared to control cells” value in [7] (p53-deficient HCT116) is “did not yield any discernible differences”. Moreover, the “relative expression level of USP7 (Q-PCR)” value stood at 1.017 in data set [8] and 0.9689 in data set [9]. Moreover, the “relative expression level of USP47 (Q-PCR)” value in data set [8] is on record as 0.5092; in data set [9] it was 0.3387.
